Measured values published in US9663526B2, “Aminopyrimidinyl compounds” (Pfizer Inc., priority 2014, dated 2017).

Legend:
[1] = system: interferon alpha signalling (TYK2 and JAK1), STAT3 phosphorylation; experiment: Human whole blood INFα induced STAT3 phosphorylation assay; assay type: cell-based; settings: compound 60 minutes at 37° C., IFNα 5000 U/ml for 15 minutes, pSTAT3 in lymphocyte population by flow cytometry, read-out: HWB IFN alpha IC50;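 note: flow cytometry with anti-pSTAT3 staining, signal as percent-positive × mean fluorescence, baseline from unstimulated wells, 11-point dilution series, IC50 as inhibition of pSTAT3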
[2] = biological target: recombinant human kinase domain of JAK3 (Homo sapiens (Human), UniProt P52333); experiment: JAK Caliper enzyme assay at 1 mM ATP (JAK3); assay type: biochemical; settings: 1 mM ATP; read-out: IC50 (nM) JAK3;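 note: microfluidic mobility-shift readout of synthetic peptide phosphorylation, percent product converted from peak heights, normalized to DMSO-only wells as uninhibited baseline, room temperature incubation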
[3] = biological target: recombinant human kinase domain of JAK1 (Homo sapiens (Human), UniProt P23458); experiment: JAK Caliper enzyme assay at 1 mM ATP (JAK1); assay type: biochemical; settings: 1 mM ATP; read-out: IC50 (nM) JAK1;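 note: microfluidic mobility-shift readout of synthetic fluorescent peptide phosphorylation, percent product converted from peak height, inhibition relative to DMSO-only wells as uninhibited baseline, room temperature incubation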
[4] = biological target: recombinant human kinase domain of JAK2 (Homo sapiens (Human), UniProt O60674); experiment: JAK Caliper enzyme assay at 1 mM ATP (JAK2); assay type: biochemical;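 note: microfluidic mobility-shift read-out of fluorescent synthetic peptide phosphorylation, percent product converted from peak heights, room temperature, DMSO-only wells as uninhibited baseline, inhibition curve fit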
[5] = biological target: recombinant human kinase domain of TYK2 (Homo sapiens (Human), UniProt P29597); experiment: JAK Caliper enzyme assay at 1 mM ATP (TYK2); assay type: biochemical; settings: 1 mM ATP; read-out: IC50 (nM) TYK2;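 note: microfluidic mobility-shift readout of synthetic peptide phosphorylation by TYK2, tuned to 20–30% conversion at room temperature, reaction stopped with EDTA, DMSO-only wells as uninhibited baseline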
recombinant human kinase domain of TYK2, sequence (P29597 897-1176): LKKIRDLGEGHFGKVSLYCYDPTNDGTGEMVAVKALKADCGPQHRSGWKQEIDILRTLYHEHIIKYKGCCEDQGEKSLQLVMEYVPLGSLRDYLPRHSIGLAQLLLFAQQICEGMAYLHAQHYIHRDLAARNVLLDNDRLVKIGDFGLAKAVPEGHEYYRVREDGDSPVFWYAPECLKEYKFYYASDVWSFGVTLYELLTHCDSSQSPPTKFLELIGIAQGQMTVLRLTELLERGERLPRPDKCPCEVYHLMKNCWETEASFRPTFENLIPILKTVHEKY

recombinant human kinase domain of JAK1, sequence (P23458 875-1153): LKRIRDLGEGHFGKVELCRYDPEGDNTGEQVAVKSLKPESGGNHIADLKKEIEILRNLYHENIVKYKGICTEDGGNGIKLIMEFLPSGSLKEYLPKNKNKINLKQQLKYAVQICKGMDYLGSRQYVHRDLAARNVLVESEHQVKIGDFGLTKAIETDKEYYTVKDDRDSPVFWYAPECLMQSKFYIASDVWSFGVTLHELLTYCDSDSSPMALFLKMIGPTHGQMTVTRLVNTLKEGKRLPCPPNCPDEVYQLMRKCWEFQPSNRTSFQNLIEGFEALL
recombinant human kinase domain of JAK2, sequence (O60674 849-1124): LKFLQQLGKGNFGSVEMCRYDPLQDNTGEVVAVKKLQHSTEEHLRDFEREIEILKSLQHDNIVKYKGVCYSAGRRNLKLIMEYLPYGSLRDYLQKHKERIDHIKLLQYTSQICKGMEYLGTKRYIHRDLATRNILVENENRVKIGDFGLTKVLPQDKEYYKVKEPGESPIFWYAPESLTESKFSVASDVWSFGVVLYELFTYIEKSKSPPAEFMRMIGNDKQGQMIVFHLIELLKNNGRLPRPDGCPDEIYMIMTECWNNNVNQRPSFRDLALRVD
recombinant human kinase domain of JAK3, sequence (P52333 822-1111): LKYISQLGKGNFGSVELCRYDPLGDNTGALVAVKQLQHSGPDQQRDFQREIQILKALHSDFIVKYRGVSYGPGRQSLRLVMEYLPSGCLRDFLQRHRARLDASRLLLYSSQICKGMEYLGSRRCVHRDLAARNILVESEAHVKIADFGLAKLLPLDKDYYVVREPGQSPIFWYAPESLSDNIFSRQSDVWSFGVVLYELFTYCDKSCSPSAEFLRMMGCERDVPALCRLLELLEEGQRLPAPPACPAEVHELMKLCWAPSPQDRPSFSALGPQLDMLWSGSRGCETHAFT

Which IC50 [1] does the source give for `O=C([C@@H]1CC1(F)F)N1[C@@H]2CC[C@H]1CN(c1ccnc(Nc3cnc(N4CC[C@@H](O)C4)c(F)c3)n1)C2` [Example 21, [(1S)-2,2-difluorocyclopropyl]{(1R,5S)-3-[2-({5-fluoro-6-[(3R)-3-hydroxypyrrolidin-1-yl]pyridin-3-yl}amino)pyrimidin-4-yl]-3,8-diazabicyclo[3.2.1]oct-8-yl}methanone] here?
Its IC50 is 0.731 µM.

What does the source list for `Cn1cc(Nc2nccc(N3C[C@H]4CC[C@@H](C3)N4C3(CC#N)CN(S(C)(=O)=O)C3)n2)cn1` [Example 83, {3-[(1R,5S)-3-{2-[(1-methyl-1H-pyrazol-4-yl)amino]pyrimidin-4-yl}-3,8-diazabicyclo[3.2.1]oct-8-yl]-1-(methylsulfonyl)azetidin-3-yl}acetonitrile]?
IC50 [2]: 1240 nM; IC50 [1]: 0.085 µM

How did the IC50 [1] turn out when `O=C([C@@H]1CC1(F)F)N1[C@@H]2CC[C@H]1CN(c1ccnc(Nc3cnc(OCCO)c(Cl)c3)n1)C2` [Example 23, [(1R,5S)-3-(2-{[5-chloro-6-(2-hydroxyethoxy)pyridin-3-yl]amino}pyrimidin-4-yl)-3,8-diazabicyclo[3.2.1]oct-8-yl][(1S)-2,2-difluorocyclopropyl]methanone] was run?
Its IC50 is 0.428 µM.

Which IC50 [2] does the source give for `Cc1cnc(Nc2ccc(OCCO)nc2)nc1N1C[C@H]2[C@@H](C)[C@@]2(NC(=O)[C@H]2C[C@@H]2C#N)C1` [Example 98, (1S,2S)-2-cyano-N-[(1S,5R,6R)-3-(2-{[6-(2-hydroxyethoxy)pyridin-3-yl]amino}-5-methylpyrimidin-4-yl)-6-methyl-3-azabicyclo[3.1.0]hex-1-yl]cyclopropanecarboxamide] here?
The IC50 was 2600 nM.

What about the IC50 [1] of the same compound?
The IC50 was 0.246 µM.

And the IC50 [3]?
The IC50 was 13 nM.

What about the IC50 [4] of the same compound?
The IC50 was 147 nM.

For `Cn1cc(Nc2nccc(N3C[C@H]4CC[C@@H](C3)N4C(=O)[C@@H]3CC3(F)F)n2)cn1` [Example 7, [(1S)-2,2-difluorocyclopropyl][(1R,5S)-3-{2-[(1-methyl-1H-pyrazol-4-yl)amino]pyrimidin-4-yl}-3,8-diazabicyclo[3.2.1]oct-8-yl]methanone], which IC50 [1] is on record?
Its IC50 is 0.03 µM.

For `CNC(=O)c1ncc(Nc2nccc(N3C[C@H]4CC[C@@H](C3)N4C(=O)NCC#N)n2)cc1C` [Example 90, (1R,5S)—N-(cyanomethyl)-3-(2-{[5-methyl-6-(methylcarbamoyl)pyridin-3-yl]amino}pyrimidin-4-yl)-3,8-diazabicyclo[3.2.1]octane-8-carboxamide], which IC50 [2] is on record?
Its IC50 is 4170 nM.

What about the IC50 [1] of the same compound?
Its IC50 is 0.247 µM.

What about the IC50 [3] of the same compound?
The IC50 was 17 nM.

Which results are given for `CNC(=O)c1ncc(Nc2nccc(N3C[C@H]4CC[C@@H](C3)N4C(=O)[C@@H]3C[C@H]3F)n2)cc1C` [Example 45, 5-({4-[(1R,5S)-8-{[(1S,2R)-2-fluorocyclopropyl]carbonyl}-3,8-diazabicyclo[3.2.1]oct-3-yl]pyrimidin-2-yl}amino)-N,3-dimethylpyridine-2-carboxamide]?
IC50 [2]: 7400 nM; IC50 [1]: 0.11 µM; IC50 [3]: 46 nM; IC50 [4]: 100 nM

For `Cc1cc(Nc2nccc(N3C[C@H]4CC[C@@H](C3)N4C(=O)C3CC3)n2)cnc1C(N)=O` [Example 15, 5-({4-[(1R,5S)-8-(cyclopropylcarbonyl)-3,8-diazabicyclo[3.2.1]oct-3-yl]pyrimidin-2-yl}amino)-3-methylpyridine-2-carboxamide], which IC50 [1] is on record?
The IC50 was 0.534 µM.

For `CNC(=O)c1ncc(Nc2nccc(N3C[C@H]4CC[C@@H](C3)N4C(=O)[C@@H]3C[C@H]3C#N)n2)cc1C` [Example 32, 5-({4-[(1R,5S)-8-{[(1R,2R)-2-cyanocyclopropyl]carbonyl}-3,8-diazabicyclo[3.2.1]oct-3-yl]pyrimidin-2-yl}amino)-N,3-dimethylpyridine-2-carboxamide], which IC50 [2] is on record?
Its IC50 is over 10000 nM.

What about the IC50 [1] of the same compound?
The IC50 was 0.115 µM.

What about the IC50 [4] of the same compound?
Its IC50 is 140 nM.

Which results are given for `Cn1cc(Nc2nccc(N3C[C@H]4CC[C@@H](C3)N4Cc3ccns3)n2)cn1` [Example 55, N-(1-methyl-1H-pyrazol-4-yl)-4-[(1R,5S)-8-(1,2-thiazol-5-ylmethyl)-3,8-diazabicyclo[3.2.1]oct-3-yl]pyrimidin-2-amine]?
IC50 [2]: 8620 nM; IC50 [1]: 0.168 µM; IC50 [3]: 35 nM; IC50 [4]: 221 nM

For `Cc1cc(Nc2nccc(N3C[C@H]4CC[C@@H](C3)N4C(=O)[C@@H]3CC3(F)F)n2)cnc1C(N)=O` [Example 35, 5-({4-[(1R,5S)-8-{[(1S)-2,2-difluorocyclopropyl]carbonyl}-3,8-diazabicyclo[3.2.1]oct-3-yl]pyrimidin-2-yl}amino)-3-methylpyridine-2-carboxamide], which IC50 [2] is on record?
Its IC50 is over 10000 nM.

And the IC50 [1]?
The IC50 was 0.09 µM.

What about the IC50 [3] of the same compound?
The IC50 was 170 nM.

What about the IC50 [4] of the same compound?
The IC50 was 337 nM.

With `CNC(=O)c1ncc(Nc2nccc(N3C[C@H]4CC[C@@H](C3)N4C(=O)[C@H]3C[C@@H]3F)n2)cc1C` [Example 44, 5-({4-[(1R,5S)-8-{[(1R,2S)-2-fluorocyclopropyl]carbonyl}-3,8-diazabicyclo[3.2.1]oct-3-yl]pyrimidin-2-yl}amino)-N,3-dimethylpyridine-2-carboxamide] as the compound, how does the IC50 [2] read?
The IC50 was over 10000 nM.

What about the IC50 [1] of the same compound?
The IC50 was 0.562 µM.

What about the IC50 [3] of the same compound?
Its IC50 is 475 nM.

And the IC50 [4]?
Its IC50 is 854 nM.

For `CCn1cc(Nc2nccc(N3C[C@H]4CC[C@@H](C3)N4C(=O)[C@@H]3C[C@H]3C#N)n2)cn1` [Example 24, (1R,2R)-2-{[(1R,5S)-3-{2-[(1-ethyl-1H-pyrazol-4-yl)amino]pyrimidin-4-yl}-3,8-diazabicyclo[3.2.1]oct-8-yl]carbonyl}cyclopropanecarbonitrile], which IC50 [2] is on record?
Its IC50 is 4990 nM.

And the IC50 [1]?
The IC50 was 0.043 µM.

What about the IC50 [3] of the same compound?
Its IC50 is 13 nM.

And the IC50 [4]?
Its IC50 is 67 nM.

Which results are given for `CCNC(=O)c1ncc(Nc2nccc(N3C[C@H]4CC[C@@H](C3)N4C(=O)C3CC3)n2)cc1C` [Example 14, 5-({4-[(1R,5S)-8-(cyclopropylcarbonyl)-3,8-diazabicyclo[3.2.1]oct-3-yl]pyrimidin-2-yl}amino)-N-ethyl-3-methylpyridine-2-carboxamide]?
IC50 [2]: > 10000 nM; IC50 [1]: 0.287 µM; IC50 [5]: 79 nM

Which IC50 [2] does the source give for `CNC(=O)c1cc(Nc2nccc(N3C[C@H]4CC[C@@H](C3)N4C(=O)[C@@H]3CC3(F)F)n2)cc(CO)n1` [Example 41, 4-({4-[(1R,5S)-8-{[(1S)-2,2-difluorocyclopropyl]carbonyl}-3,8-diazabicyclo[3.2.1]oct-3-yl]pyrimidin-2-yl}amino)-6-(hydroxymethyl)-N-methylpyridine-2-carboxamide] here?
The IC50 was over 10000 nM.

And the IC50 [3]?
Its IC50 is 201 nM.

What about the IC50 [5] of the same compound?
The IC50 was 84 nM.

What about the IC50 [4] of the same compound?
The IC50 was 279 nM.

For `O=C([C@@H]1CC1(F)F)N1[C@@H]2CC[C@H]1CN(c1ccnc(Nc3cn[nH]c3)n1)C2` [Example 51, ((1R,5S)-3-(2-((1H-pyrazol-4-yl)amino)pyrimidin-4-yl)-3,8-diazabicyclo[3.2.1]octan-8-yl)((S)-2,2-difluorocyclopropyl)methanone], which IC50 [2] is on record?
Its IC50 is 8610 nM.

And the IC50 [1]?
The IC50 was 0.02 µM.

And the IC50 [3]?
The IC50 was 13 nM.

What about the IC50 [4] of the same compound?
The IC50 was 97 nM.

With `CCNC(=O)N1[C@@H]2CC[C@H]1CN(c1ccnc(Nc3cn[nH]c3)n1)C2` [Example 5, (1R,5S)—N-ethyl-3-[2-(1H-pyrazol-4-ylamino)pyrimidin-4-yl]-3,8-diazabicyclo[3.2.1]octane-8-carboxamide] as the compound, how does the IC50 [2] read?
Its IC50 is over 10000 nM.

What about the IC50 [1] of the same compound?
The IC50 was 0.105 µM.

What about the IC50 [4] of the same compound?
Its IC50 is 477 nM.

Which IC50 [2] does the source give for `CNC(=O)c1ncc(Nc2ncc(F)c(N3C[C@H]4[C@@H](C)[C@@]4(NC(=O)C4CC4)C3)n2)cc1C` [Example 100, 5-[(4-{(1S,5R,6R)-1-[(cyclopropylcarbonyl)amino]-6-methyl-3-azabicyclo[3.1.0]hex-3-yl}-5-fluoropyrimidin-2-yl)amino]-N,3-dimethylpyridine-2-carboxamide] here?
The IC50 was over 10000 nM.

And the IC50 [3]?
The IC50 was 965 nM.

And the IC50 [5]?
Its IC50 is 97 nM.

And the IC50 [4]?
Its IC50 is 4250 nM.
